Where a SMILES comes first, the peptide text is derived from it.
Tests used:
[1] = tested on: human red blood cells (hRBC); type: cell-based; conditions: red cells of human, 1 h, 0.2 g/L
How it was run: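 Percent lysis was derived from supernatant absorbance at 540 nm relative to full lysis by 2.5% Triton X-100 (PBS defines 0%). Compounds, 200 μg/mL, were exposed for 1 h at 37° C to a 20% (v/v) suspension of washed human red cells.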

[2] = tested on: Escherichia coli ATCC 25922; conditions: ATCC 25922
How it was run: (§1)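 Standardized inocula (0.5 McFarland in saline, then diluted in MHII broth to approximately 5×10^5 CFU/mL) were exposed to two-fold dilution series of each peptide in the presence of polysorbate 80 (0.002% final).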

[3] = tested on: Escherichia coli MCR-1 Af 45; conditions: Mueller-Hinton broth II, no visible growth after 18-20 hours at 35° C.
How it was run: as §1

[4] = tested on: Klebsiella pneumoniae SSI3010; conditions: SSI3010
How it was run: as §1

Structure (SMILES)	Hemolysis at 0.2 g/L [1]	Escherichia coli ATCC 25922 MIC [2]	Escherichia coli MCR-1 Af 45 MIC [3]	Klebsiella pneumoniae SSI3010 MIC [4]
CC[C@H](C)[C@H](NC(=O)[C@@H](NC(=O)[C@@H]1C[C@@H](O)CN1C(=O)[C@@H](N)C(C)C)[C@@H](C)CC)C(=O)N[C@@H](Cc1ccc(O)cc1)C(=O)N[C@@H]1C(=O)N[C@@H](CC(N)=O)C(=O)N[C@@H](CCCNC(=N)N)C(=O)N[C@@H](CCN)C(=O)N[C@@H](CO)C(=O)N[C@H](CCN)C(=O)N[C@@H]([C@@H](C)CC)C(=O)N[C@H](C(=O)N[C@@H](CCN)C(=O)N[C@@H](CCCNC(=N)N)C(=O)N[C@@H](Cc2ccc(O)cc2)C(=O)O)CSSC1(C)C [Example 118, Val-Hyp-Ile-Ile-Tyr-Pen-Asn-Arg-Dab-Ser-^DDab-Ile-Cys-Dab-Arg-Tyr] (HELM PEPTIDE1{V.[Hyp].I.I.Y.[Pen].N.R.[Dab].S.[NCC[C@@H](N[*:1])C(=O)[*:2]].I.C.[Dab].R.Y}$PEPTIDE1,PEPTIDE1,6:R3-13:R3$$$V2.0)	<1%	0.25 µg/mL	0.25 µg/mL	0.25 µg/mL
CC[C@H](C)[C@H](NC(=O)[C@@H]1C[C@@H](N)CN1C(=O)[C@@H](N)C(C)C)C(=O)N[C@H](C(=O)N[C@@H](Cc1ccc(O)cc1)C(=O)N[C@@H]1C(=O)N[C@@H](CC(N)=O)C(=O)N[C@@H](CCCNC(=N)N)C(=O)N[C@@H](CCN)C(=O)N[C@@H]([C@@H](C)O)C(=O)N[C@H](CCN)C(=O)N[C@@H](CCCCN)C(=O)N[C@H](C(=O)N[C@@H](CO)C(=O)N[C@H](C(=O)N[C@@H](Cc2ccc(O)cc2)C(=O)O)[C@@H](C)O)CSSC1(C)C)[C@@H](C)O [Example 119, Val-Pro((4R)NH2)-Ile-Thr-Tyr-Pen-Asn-Arg-Dab-Thr-^DDab-Lys-Cys-Ser-Thr-Tyr] (HELM PEPTIDE1{V.[N[C@@H]1C[C@@H](C(=O)[*:2])N([*:1])C1].I.T.Y.[Pen].N.R.[Dab].T.[NCC[C@@H](N[*:1])C(=O)[*:2]].K.C.S.T.Y}$PEPTIDE1,PEPTIDE1,6:R3-13:R3$$$V2.0)	<1%	0.25 µg/mL	0.25 µg/mL	0.25 µg/mL
CC[C@H](C)[C@H](NC(=O)[C@@H]1C[C@@H](N)CN1C(=O)[C@@H](N)C(C)C)C(=O)N[C@H](C(=O)N[C@@H](Cc1ccc(O)cc1)C(=O)N[C@@H]1C(=O)N[C@@H](CC(N)=O)C(=O)N[C@@H](CCCNC(=N)N)C(=O)N[C@@H](CCN)C(=O)N[C@@H]([C@@H](C)O)C(=O)N[C@H](CCN)C(=O)N[C@@H](CCCCN)C(=O)N[C@H](C(=O)N[C@@H](CCN)C(=O)N[C@H](C(=O)N[C@@H](Cc2ccc(O)cc2)C(=O)O)[C@@H](C)O)CSSC1(C)C)[C@@H](C)O [Example 120, Val-Pro((4R)NH2)-Ile-Thr-Tyr-Pen-Asn-Arg-Dab-Thr-^DDab-Lys-Cys-Dab-Thr-Tyr] (HELM PEPTIDE1{V.[N[C@@H]1C[C@@H](C(=O)[*:2])N([*:1])C1].I.T.Y.[Pen].N.R.[Dab].T.[NCC[C@@H](N[*:1])C(=O)[*:2]].K.C.[Dab].T.Y}$PEPTIDE1,PEPTIDE1,6:R3-13:R3$$$V2.0)	<1%	0.25 µg/mL	0.125 µg/mL	0.5 µg/mL
